# Patent US20230365682A1, “COMBINATION THERAPY FOR TREATING COLORECTAL CANCER” (Gilead Sciences, Inc., priority 2022, published 2023)
# Entries after “also recorded” stand apart in the source; their conditions may differ.
# Key:
# LS 174T cells = assay: Flow cytometry of prophagocytic receptors (CALR, PS) after 24 hours of drug; type: cell-based; details: 24 hours incubation; CALR and PS staining
# Experimental: (§1) A. LS 174T cells were incubated with titrations of irinotecan for 24 hours, washed, and stained for CALR and PS. Flow cytometry was used to analyze and quantify the frequency of stained cells. The shaded areas indicate reported IC50 for each drug. B. LS-174T or HCT-116 cells were pretreated for 24 hours with irinotecan or oxaliplatin at the indicated concentration. The tumor cells were washed, CFSE labeled and cocultured with monocyte-derived macrophages at a 2:1 target to effector ratio for 2 hours. The phagocytic index, defined as the percentage of the macrophages that engulfed tumor cells out of total macrophages, was quantified using flow cytometry. 5F9, Magro=magrolimab; CALR=calreticulin; CFSE=carboxyfluorescein succinimidyl ester; hr=hour; IC50=half-maximal inhibitory concentration; MFI=median fluorescence intensity; PBS=phosphate buffered saline; PS=phosphatidyl serine; SN 38=irinotecan.
# LS-174T or HCT-116 cells = assay: In vitro phagocytosis of pretreated tumor cells by monocyte-derived macrophages; type: cell-based; details: 24 hours pretreatment; 2:1 target to effector ratio, 2 hours coculture
# Experimental: as §1
# colorectal cancer cells = assay: Cell growth inhibition (Cell-titer Glo, ATP); type: cell-based; details: 24, 48, and 72 hours of drug treatment; normalized to DMSO control
# Experimental: Tumor cells were treated with titrations of irinotecan, oxaliplatin, or vehicle control and monitored for growth after 24, 48, and 72 hours of drug treatment. Cell growth was indirectly determined using a commercially available reagent (Promega, Cell-titer Glo®) which measures intracellular adenosine triphosphate (ATP) levels and directly correlates to the number of live cells. […] DMSO=dimethyl sulfoxide; Oxa=oxaliplatin; SN-38=irinotecan.
# mCRC = details: cited from earlier work
# [1] = Clinical safety of magrolimab; details: human, in vivo
# Experimental: In the first-in-human study of magrolimab in patients with solid tumors and lymphomas, after an initial priming dose of 1 mg/kg on the first day, magrolimab was tested as a monotherapy at weekly doses of up to 45 mg/kg. The use of an initial 1 mg/kg priming dose was integrated into the dosing regimen to mitigate the on-target anemia induced by CD47 blockade. An initial priming dose leads to elimination of aged RBCs that are sensitive to CD47 blockade and triggers reticulocytosis of young RBCs that are not affected by CD47 blockade (Chen, et al., Blood (ASH Annual Meeting Abstracts) (2018) 132 (Suppl 1):2327). […] Based on PK-PD modeling, a maintenance dose of 30 mg/kg every 2 weeks is expected to provide more than 90% occupancy of the CD47 receptor in peripheral blood and tumor tissues and thus is expected to provide maximal efficacy while maintaining adequate safety. In solid tumors where the combination therapy is given according to 3-week cycles, dosing of magrolimab every 3 weeks optimizes patient and caregiver convenience. […]
# Up to 6 other patients will then be enrolled and evaluated at a lower dose level in the same manner. • Once the RP2D is determined, the sponsor will open the Randomized Cohort.
# [2] = with 1 mg/kg priming dose, then repeated therapeutic doses; cited from earlier work
# [3] = continuation on bevacizumab versus standard chemotherapy alone
molecule,measurement,setting,value
CCc1c2c(nc3ccc(OC(=O)N4CCC(N5CCCCC5)CC4)cc13)-c1cc3c(c(=O)n1C2)COC(=O)[C@]3(O)CC [irinotecan],cell surface expression of prophagocytic receptors,LS 174T cells,upregulates the expression of prophagocytic receptors; also recorded: more effective than oxaliplatin
same,phagocytosis of colorectal cancer cells,LS-174T or HCT-116 cells,promotes the in vitro phagocytosis of colorectal cancer cells; also recorded: more effective than oxaliplatin
same,growth inhibition,colorectal cancer cells,growth inhibition; also recorded: more likely to undergo growth inhibition
bevacizumab: humanized monoclonal antibody targeting circulatory VEGF and preventing tumor angiogenesis,PFS,"mCRC; continuation on bevacizumab after progression on first-line chemotherapy, standard chemotherapy alone 4.1 months",5.7 months
same,OS,"mCRC; continuation on bevacizumab after progression on first-line chemotherapy, standard chemotherapy alone 9.9 months",11.2 months
same,OS HR,mCRC; [3],0.81
same,PFS HR,mCRC; [3],0.68
O=C1[O][Pt]2([NH][C@@H]3CCCC[C@H]3[NH]2)[O]C1=O [oxaliplatin],growth inhibition,colorectal cancer cells,growth inhibition
magrolimab: humanized anti-CD47 mAb (human IgG4) that blocks the interaction of CD47 with its receptor and enables phagocytosis of human cancer cells,dose-dependent toxicities,[1],no dose-dependent toxicities have been observed
same,anemia,[2],"initial, transient, and mild anemia that generally normalizes back to baseline over several weeks"
